In article PMC6100582 (Molecules : A Journal of Synthetic Chemistry and Natural …, 2018):
Converted amounts (≈) assume the structure as drawn. Like-named read-outs stand apart in the source and are kept apart here.

Key:
[1] = test system: Staphylococcus aureus ATCC 6538; assay: Antimicrobial susceptibility assay in vitro (MIC determination); format: cell-based; settings: ATCC6538
[2] = test system: Bacillus cereus ATCC 11778; assay: as above; format: cell-based; settings: ATCC11778, serial microdilution, 18 h, 35 °C
Method: (§1) Stock solutions of the tested compounds were prepared in DMSO (10 mg/mL). […] The absorbance was recorded at 540 nm. As a positive quality control (susceptibility of strains) tetracycline hydrochloride (TC) (Sigma-Aldrich) was added into wells.

[3] = test system: Streptococcus pneumoniae MFBF 10373; assay: as above; format: cell-based; settings: MFBF10373, serial microdilution, 18 h, 35 °C
Method: as §1

[4] = test system: Acinetobacter baumannii MFBF 10913; assay: as above; format: cell-based; settings: MFBF10913, serial microdilution, 18 h, 35 °C
Method: as §1

[5] = test system: Bacillus subtilis ATCC 6633; assay: as above; format: cell-based; settings: ATCC6633, serial microdilution, 18 h, 35 °C
Method: as §1

[6] = test system: Bacillus cereus ATCC 11778; assay: Minimum biofilm eradication assay; format: cell-based
Method: (§2) MBECs of fumardiamides 4a–f and succindiamides 5a–f were determined as follows. Each well (96-well plate) was filled with 100 µl of bacterial (10^7 CFU/mL) or yeast (5 × 10^6 CFU/mL) suspension. When the inhibition of yeast biofilm formation was tested, the wells were pre-treated with fetal bovine serum (FBS) (250 µl per well). Negative controls contained broth only. Positive controls were performed using standard antimicrobial drugs gentamycin (Gen) and Amph, respectively. […] Following incubation period, each well was aspirated, washed three times and vigorously shaken to remove all non-adherent bacteria/yeast. The remaining attached cells were fixed with methanol (15 min) and the plates were left to dry overnight. Formed biofilm was stained with crystal violet (1%, 5 min). Excess stain was rinsed by placing the plate under running tap water and the plates were left to dry. Adherent cells were solubilized using ethanol. The absorbance was read at 570 nm. The MBEC value represents the lowest dilution of a compound at which bacteria fail to grow.

[7] = test system: Enterococcus faecalis ATCC 29212; assay: Minimum biofilm eradication assay; format: cell-based
Method: as §2

[8] = test system: Staphylococcus aureus ATCC 6538; assay: Minimum biofilm eradication assay; format: cell-based
Method: as §2

[9] = test system: Escherichia coli ATCC 10536; assay: Minimum biofilm eradication assay; format: cell-based
Method: as §2

[10] = test system: Salmonella enteritidis MFBF 11945; assay: Minimum biofilm eradication assay; format: cell-based
Method: as §2

[11] = test system: Acinetobacter baumannii MFBF 10913; assay: Minimum biofilm eradication assay; format: cell-based
Method: as §2

[12] = test system: Bacillus subtilis ATCC 6633; assay: Minimum biofilm eradication assay; format: cell-based
Method: as §2

[13] = test system: Pseudomonas aeruginosa ATCC 27853; assay: Minimum biofilm eradication assay; format: cell-based
Method: as §2

[14] = test system: Proteus mirabilis MFBF 10430; assay: Minimum biofilm eradication assay; format: cell-based
Method: as §2

[15] = test system: Serratia marcescens ATCC 10905; assay: Minimum biofilm eradication assay; format: cell-based
Method: as §2

[16] = test system: Streptococcus pneumonia MFBF 10373; assay: Minimum biofilm eradication assay; format: cell-based, Streptococcus pneumoniae
Method: as §2

in vitro = settings: African green monkey
Sindbis Virus = assay: microbe, parasite or virus in culture; format: cell-based; settings: Vero
Para-Influenza-3 Virus = assay: organism not typed; format: cell-based
Coxsackie Virus B4 = assay: Antiviral activity in Vero cell cultures; format: cell-based; settings: Enterovirus B
Yellow Fever Virus = assay: microbe, parasite or virus in culture; format: cell-based; settings: Vero
Punta Toro Virus = assay: microbe, parasite or virus in culture; format: cell-based
Reovirus-1 = assay: Antiviral activity in Vero cell cultures; format: cell-based
[17] = test system: Candida albicans ATCC 90028; assay: In vitro antifungal susceptibility testing (MIC determination); format: cell-based; settings: ATCC90028
MM.1S (multiple myeloma) = assay: Antiproliferative screening (cytostatic activity); format: cell-based; settings: Homo sapiens, MM1.S, 72 h, read-out: IC50 MM.1S
Method: (§3) All human tumor cell lines were acquired from the American Type Culture Collection (ATCC, Manassas, VA, USA), except for the DND-41 cell line which was purchased from the Deutsche Sammlung von Mikroorganismen und Zellkulturen (DSMZ Leibniz-Institut, Braunschweig, Germany) and the Hap1 cell line which was purchased from Horizon Discovery (Waterbeach, UK). […] All media were supplemented with 10% FBS (HyClone, GE Healthcare Life Sciences, USA). […] After overnight incubation, cells were treated with test compounds at four different concentrations ranging from 100 to 0.8 µM. […] Images were taken every 3 h, with one field image per well under 10× magnification. All compounds were tested with duplicate data points and averaged.

[18] = test system: NCI-H460 (lung carcinoma); assay: Antiproliferative screening (cytostatic activity); format: cell-based; settings: Homo sapiens, NCI-H460, 72 h, read-out: IC50 NCI-H460
Method: as §3

[19] = test system: K-562 (chronic myeloid leukemia); assay: Antiproliferative screening (cytostatic activity); format: cell-based; settings: Homo sapiens, K562, 72 h, read-out: IC50 K-562
Method: as §3

[20] = test system: Capan-1 (pancreatic adenocarcinoma); assay: Antiproliferative screening (cytostatic activity); format: cell-based; settings: Homo sapiens, CAPAN-1, 72 h, read-out: IC50 Capan-1
Method: as §3

[21] = test system: Z-138 (non-Hodgkin lymphoma); assay: Antiproliferative screening (cytostatic activity); format: cell-based; settings: Homo sapiens, Z-138, 72 h, read-out: IC50 Z-138
Method: as §3

[22] = test system: HCT-116 (colorectal carcinoma); assay: Antiproliferative screening (cytostatic activity); format: cell-based; settings: Homo sapiens, HCT-116, 72 h, read-out: IC50 HCT-116
Method: as §3

[23] = test system: DND-41 (acute lymphoblastic leukemia); assay: Antiproliferative screening (cytostatic activity); format: cell-based, human; settings: Homo sapiens, DND41, 72 h, read-out: IC50 DND-41
Method: (§4) Cytostatic activity was evaluated in vitro on nine different types of human tumor cell lines: Capan-1, Hap1, HCT-116, and NCI-H460, as well as hematological tumors such as DND-41, HL-60, K-562, MM.1S and Z-138 as described previously. All human tumor cell lines were acquired from the American Type Culture Collection (ATCC, Manassas, VA, USA), except for the DND-41 cell line which was purchased from the Deutsche Sammlung von Mikroorganismen und Zellkulturen (DSMZ Leibniz-Institut, Braunschweig, Germany) and the Hap1 cell line which was purchased from Horizon Discovery (Waterbeach, UK). Capan-1, Hap1, HL-60, K-562, Z-138, MM.1S and DND-41 were cultured in Iscove′s Modified Dulbecco′s Medium (IMDM, Gibco Life Technologies, Gaithersburg, MD, USA), HCT-116 were grown in McCoy′s 5A Medium (Gibco Life Technologies) and NCI-H460 were cultured in RPMI (Gibco Life Technologies). All media were supplemented with 10% FBS (HyClone, GE Healthcare Life Sciences, USA). Adherent cell lines HCT-116, Hap1, NCI-H460, and Capan-1 cells were seeded at a density between 400 and 1250 cells per well, in 384-well, black-walled, clear-bottomed tissue culture plates (Greiner Bio-One, Kremsmünster, Germany). After overnight incubation, cells were treated with test compounds at four different concentrations ranging from 100 to 0.8 µM. Suspension cell lines HL-60, K-562, Z-138, MM.1S, and DND-41 were seeded at densities ranging from 3000 to 10,000 cells per well in 384-well, black-walled, clear-bottomed tissue culture plates containing test compounds at the same four concentrations. The plates were incubated and monitored at 37 °C for 72 h in an IncuCyte (Essen BioScience Inc., Ann Arbor, MI, USA) for real-time imaging. Images were taken every 3 h, with one field image per well under 10× magnification. All compounds were tested with duplicate data points and averaged. […]

[24] = test system: HL-60 (acute myeloid leukemia); assay: Antiproliferative screening (cytostatic activity); format: cell-based; settings: Homo sapiens, HL-60, 72 h, read-out: IC50 HL-60
Method: as §4

[25] = test system: Hap1 (chronic myeloid leukemia); assay: Antiproliferative screening (cytostatic activity); format: cell-based; settings: Homo sapiens, HAP1, 72 h, read-out: IC50 Hap1
Method: as §4

Vero cell cultures = settings: African green monkey
[26] = read-out: EC50 Sindbis Virus, MTS
[27] = read-out: EC50 Sindbis Virus, Visual CPE Score
[28] = B4, Vero cells, MTS, read-out: EC50 Coxsackie Virus B4, MTS
[29] = B4, Vero cells, visual CPE score, read-out: EC50 Coxsackie Virus B4, Visual CPE Score
[30] = read-out: EC50 Yellow Fever Virus, MTS
[31] = read-out: EC50 Yellow Fever Virus, Visual CPE Score
[32] = Vero cells, MTS, read-out: EC50 Reovirus-1, MTS
[33] = Vero cells, visual CPE score, read-out: EC50 Reovirus-1, Visual CPE Score
[34] = Vero cells, MTS, read-out: EC50 Para-Influenza-3 Virus, MTS
[35] = Vero cells, MTS, read-out: EC50 Punta Toro Virus, MTS

Compound | MBEC [6] [µg/mL] | MBEC [7] [µg/mL] | MBEC [8] [µg/mL] | MBEC [9] [µg/mL] | MBEC [10] [µg/mL] | MBEC [11] [µg/mL] | MBEC [12] [µg/mL] | MBEC [13] [µg/mL] | MBEC [14] [µg/mL] | MBEC [15] [µg/mL] | MBEC [16] [µg/mL] | CC50 (in vitro) [µg/mL] | EC50 (Sindbis Virus; [26]) [µM] | EC50 (Sindbis Virus; [27]) [µM] | EC50 (Coxsackie Virus B4; [28]) [µM] | EC50 (Coxsackie Virus B4; [29]) [µM] | EC50 (Yellow Fever Virus; [30]) [µM] | EC50 (Yellow Fever Virus; [31]) [µM] | EC50 (Reovirus-1; [32]) [µM] | EC50 (Reovirus-1; [33]) [µM] | also measured
CN(C)[C@@H]1C(O)=C(C(N)=O)C(=O)[C@@]2(O)C(O)=C3C(=O)c4c(O)cccc4[C@@](C)(O)[C@H]3C[C@@H]12 [TC, tetracycline, reference compound] | – | – | – | – | – | – | – | – | – | – | – | – | – | – | – | – | – | – | – | – | MIC [1]: 0.3 µg/mL (≈ 0.675 µM); MIC [2]: 0.3 µg/mL (≈ 0.675 µM); MIC [3]: 0.3 µg/mL (≈ 0.675 µM); MIC [4]: 3 µg/mL (≈ 6.75 µM); MIC [5]: 0.3 µg/mL (≈ 0.675 µM)
gentamycin [reference compound] | 50 | 50 | 12.5 | 25 | 50 | 25 | 50 | 50 | 50 | 50 | 25 | – | – | – | – | – | – | – | – | – | –
NC(=O)c1ncn([C@@H]2O[C@H](CO)[C@@H](O)[C@H]2O)n1 [RIB, ribavirin, reference compound] | – | – | – | – | – | – | – | – | – | – | – | > 250 | > 250 | 11 | > 250 | > 250 | 119 | > 250 | 107 | 126 | EC50 (Para-Influenza-3 Virus; Vero, read-out: EC50 Para-Influenza-3 Virus, MTS): 73 µM; EC50 (Para-Influenza-3 Virus; Vero, read-out: EC50 Para-Influenza-3 Virus, Visual CPE Score): 111 µM; EC50 (Punta Toro Virus; Vero, read-out: EC50 Punta Toro Virus, MTS): 85 µM; EC50 (Punta Toro Virus; Vero, read-out: EC50 Punta Toro Virus, Visual CPE Score): 111 µM
C[C@@H]1[C@H](O)[C@@H](C)/C=C/C=C/C=C/C=C/C=C/C=C/C=C/[C@H](O[C@@H]2O[C@H](C)[C@@H](O)[C@H](N)[C@@H]2O)C[C@@H]2O[C@](O)(C[C@@H](O)C[C@@H](O)[C@H](O)CC[C@@H](O)C[C@@H](O)CC(=O)O[C@H]1C)C[C@H](O)[C@H]2C(=O)O [Amph, amphotericin B, reference compound] | – | – | – | – | – | – | – | – | – | – | – | – | – | – | – | – | – | – | – | – | MIC [17]: 0.5 µg/mL (≈ 0.541 µM)
COc1cc(NC(C)CCCN)c2ncccc2c1 (stereo not drawn) [PQ, primaquine, reference compound] | 70 | >100 | 50 | 65 | 70 | 50 | 80 | 65 | >100 | >100 | 70 | – | > 50 | – | – | – | > 50 | – | – | – | IC50 (MM.1S (multiple myeloma)): 28.3 µM; IC50 [18]: 52.6 µM; IC50 [19]: 35.2 µM; IC50 [20]: 18.7 µM; IC50 [21]: 7.1 µM; IC50 [22]: 30.9 µM; IC50 [23]: 11.4 µM; EC50 (Para-Influenza-3 Virus; [34]): > 50 µM; EC50 (Coxsackie Virus B4; B4, Vero, read-out: EC50 Coxsackie Virus B4, MTS): > 50 µM; EC50 (Punta Toro Virus; [35]): > 50 µM; EC50 (Reovirus-1; Vero, read-out: EC50 Reovirus-1, MTS): > 50 µM; IC50 [24]: 2.2 µM; IC50 [25]: 42.7 µM
COc1c(C)c2c(c(O)c1C/C=C(\C)CCC(=O)O)C(=O)OC2 [MPA, mycophenolic acid, reference compound] | – | – | – | – | – | – | – | – | – | – | – | > 100 | 12 | 1.7 | > 100 | > 100 | 0.5 | 0.8 | 0.6 | 0.8 | Cytotoxicity MCC (minimum cytotoxic concentration) (Vero cell cultures): >100; EC50 (Para-Influenza-3 Virus; [34]): 1 µM; EC50 (Punta Toro Virus; [35]): 11 µM; EC50 (Punta Toro Virus; Vero cells, visual CPE score, read-out: EC50 Punta Toro Virus, Visual CPE Score): 8.9 µM
